Measured values taken from paper PMC11784183, “Identification of an antibiotic from an HTS targeting EF-Tu:tRNA interaction: a prospective topical treatment for MRSA skin infections” (Applied and Environmental Microbiology, 2024).

Conditions: mouse, in vivo, ip, 10 mg/kg

CC[C@@H]1Cc2cc(O)ccc2C2=C1c1ccc(O)cc1C[C@H]2CC [MGC-10]
passage of the blood brain barrier: did not pass the blood brain barrier
